# Experiments:
# [1] = target: T1, CYP11A1 (Mus musculus, UniProt Q9QZ82); experiment: pregnenolone ELISA in murine Th2 cells (endogenous Cyp11a1), reference inhibitor, […] h dose response; assay type: cell-based
# T1 sequence (Q9QZ82 37-526): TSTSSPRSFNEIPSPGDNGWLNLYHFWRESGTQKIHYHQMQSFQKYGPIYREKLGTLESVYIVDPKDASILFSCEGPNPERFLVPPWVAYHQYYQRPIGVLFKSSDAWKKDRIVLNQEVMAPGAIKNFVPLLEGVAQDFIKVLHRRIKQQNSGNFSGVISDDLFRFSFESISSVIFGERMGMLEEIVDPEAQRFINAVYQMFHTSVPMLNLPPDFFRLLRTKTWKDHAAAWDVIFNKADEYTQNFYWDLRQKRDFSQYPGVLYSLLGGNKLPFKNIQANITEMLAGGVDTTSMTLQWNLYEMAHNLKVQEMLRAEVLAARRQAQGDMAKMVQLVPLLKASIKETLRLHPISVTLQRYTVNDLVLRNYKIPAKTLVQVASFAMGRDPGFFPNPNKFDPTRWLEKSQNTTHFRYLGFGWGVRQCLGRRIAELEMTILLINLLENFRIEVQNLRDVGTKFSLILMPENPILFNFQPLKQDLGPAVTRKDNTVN
# [2] = target: T1, CYP11A1; experiment: pregnenolone ELISA in murine Th2 cells (endogenous Cyp11a1), dose response; assay type: cell-based
Structure (SMILES),IC50 [1] [nM],IC50 [2] [nM]
CCC1(c2ccc(N)cc2)CCC(=O)NC1=O (centres unmarked) [aminoglutethimide],1080,–
CC[C@@H]([C@H](C)O)n1ncn(-c2ccc(N3CCN(c4ccc(OC[C@@H]5CO[C@@](Cn6cncn6)(c6ccc(F)cc6F)C5)cc4)CC3)cc2)c1=O [posaconazole],–,218

# — article PMC12124671, “Drug repurposing reveals posaconazole as a CYP11A1 inhibitor enhancing anti-tumor immunity” (iScience, 2025)
